{"source": "ChEMBL document CHEMBL5036379", "about": "“Identification of Slow-Binding Inhibitors of the BoNT/A Protease” (ACS Med Chem Lett, 2022)", "key": {"[1]": {"target": "Botulinum neurotoxin type A (Clostridium botulinum, UniProt P0DPI0)", "sequence (P0DPI0 2-448 limits assumed)": "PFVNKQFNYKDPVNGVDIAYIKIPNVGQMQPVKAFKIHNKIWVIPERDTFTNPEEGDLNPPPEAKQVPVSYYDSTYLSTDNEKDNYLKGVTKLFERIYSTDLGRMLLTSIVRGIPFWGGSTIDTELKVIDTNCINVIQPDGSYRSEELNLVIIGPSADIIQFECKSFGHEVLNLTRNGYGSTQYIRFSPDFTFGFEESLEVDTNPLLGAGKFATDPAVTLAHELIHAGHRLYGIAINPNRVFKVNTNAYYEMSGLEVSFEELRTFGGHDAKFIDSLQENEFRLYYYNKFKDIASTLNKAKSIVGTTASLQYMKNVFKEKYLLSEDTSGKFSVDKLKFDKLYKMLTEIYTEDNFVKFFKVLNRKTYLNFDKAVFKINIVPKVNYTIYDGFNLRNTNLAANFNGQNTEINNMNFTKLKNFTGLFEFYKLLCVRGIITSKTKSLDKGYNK", "assay": "Inhibition of Clostridium botulinum BoNT/A light chain assessed as inhibition constant at 10 nM using SNAPtide flp6 as substrate measured after 30 mins by FRET assay"}, "[2]": {"target": "Botulinum neurotoxin type A (Clostridium botulinum) (UniProt P0DPI0)", "sequence (P0DPI0 2-448 limits assumed)": "as above", "assay": "Inhibition of BoNT/A light chain at 1 to 32 uM using SNAPtide flp6 as substrate measured after 30 mins by FRET assay", "conditions": "dose 1-32 µM, TDE = time-dependent effect"}, "[3]": {"target": "Botulinum neurotoxin type A (Clostridium botulinum) (UniProt P0DPI0)", "assay": "Inhibition of Clostridium botulinum BoNT/A light chain assessed as inhibition constant at 6 to 30 uM using SNAPtide flp6 as substrate measured after 30 mins by FRET assay", "conditions": "dose 6-30 µM"}, "[4]": {"assay": "Half life of compound", "assay_type": "physicochemical"}}, "note": "The source made the active and inactive calls. No cut-off for these calls is given here.", "data": [{"compound": "C=CCCCCCN(O)C(=O)/C=C/c1ccc(Cl)cc1Cl", "values": [{"measurement": "Ki", "setting": "[1]", "result": 4.66, "unit": "µM"}, {"measurement": "inhibition", "setting": "[2]", "result": "Tde"}]}, {"compound": "C=CCCCCCCN(O)C(=O)/C=C/c1ccc(Cl)cc1Cl", "values": [{"measurement": "Ki", "setting": "[1]", "result": 2.84, "unit": "µM"}, {"measurement": "inhibition", "setting": "[2]", "result": "Tde"}]}, {"compound": "C=CCCCCN(O)C(=O)/C=C/c1ccc(Cl)cc1Cl", "values": [{"measurement": "Ki", "setting": "[1]", "result": 6.31, "unit": "µM"}, {"measurement": "inhibition", "setting": "[2]", "result": "Tde"}]}, {"compound": "CCCCCCCN(O)C(=O)/C=C/c1ccc(Cl)cc1Cl", "values": [{"measurement": "Ki", "setting": "[1]", "result": 2.47, "unit": "µM"}]}, {"compound": "C=CN(O)C(=O)/C=C/c1ccc(Cl)cc1Cl", "values": [{"measurement": "Ki", "setting": "[1]", "result": "> 32", "unit": "µM"}]}, {"compound": "C=CCN(O)C(=O)/C=C/c1ccc(Cl)cc1Cl", "values": [{"measurement": "Ki", "setting": "[1]", "result": "> 16", "unit": "µM"}]}, {"compound": "O=C(/C=C/c1ccc(Cl)cc1Cl)N(O)CCCCCC1CC1", "values": [{"measurement": "inhibition", "setting": "[3]", "result": "Active"}, {"measurement": "half-life", "setting": "[4]", "result": 33, "unit": "min"}]}, {"compound": "C=CCCCN(O)C(=O)/C=C/c1ccc(Cl)cc1Cl", "values": [{"measurement": "Ki", "setting": "[1]", "result": "> 8", "unit": "µM"}, {"measurement": "inhibition", "setting": "[2]", "result": "Tde"}]}]}
